From ChEMBL document CHEMBL1130241, “Design, synthesis, and biochemical evaluation of phosphonate and phosphonamidate analogs of glutathionylspermidine as inhibitors of glutathionylspermidine synthetase/amidase from Escherichia coli” (J Med Chem, 1997) come the findings set out here.

Structures are written as SMILES.

Experiment [1] deals with T1, Glutathionylspermidine synthase (Crithidia fasciculata, UniProt P90518).
T1 sequence (P90518 whole entry): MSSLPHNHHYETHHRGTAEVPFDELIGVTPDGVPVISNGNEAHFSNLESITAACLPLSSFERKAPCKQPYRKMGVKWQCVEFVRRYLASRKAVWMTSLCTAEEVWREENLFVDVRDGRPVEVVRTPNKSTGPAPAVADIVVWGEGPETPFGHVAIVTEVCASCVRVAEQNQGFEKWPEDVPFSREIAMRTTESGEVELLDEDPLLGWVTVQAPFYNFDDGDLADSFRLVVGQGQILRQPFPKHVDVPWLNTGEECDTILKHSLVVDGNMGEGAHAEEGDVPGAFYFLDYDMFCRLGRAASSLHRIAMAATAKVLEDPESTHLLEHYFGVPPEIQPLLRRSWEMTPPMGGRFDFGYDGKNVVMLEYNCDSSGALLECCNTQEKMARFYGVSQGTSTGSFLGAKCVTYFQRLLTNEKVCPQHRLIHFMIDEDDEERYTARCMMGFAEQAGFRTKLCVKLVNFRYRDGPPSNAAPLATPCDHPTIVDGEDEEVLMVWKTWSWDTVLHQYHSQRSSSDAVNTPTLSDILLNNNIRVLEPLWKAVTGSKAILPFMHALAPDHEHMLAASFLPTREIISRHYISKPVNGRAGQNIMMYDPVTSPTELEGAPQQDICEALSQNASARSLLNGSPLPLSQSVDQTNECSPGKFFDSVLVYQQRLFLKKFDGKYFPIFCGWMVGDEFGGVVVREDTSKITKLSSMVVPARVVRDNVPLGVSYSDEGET
Description: Inhibition of Glutathionylspermidine synthetase. Values from different publications. Details: species or system Escherichia coli.

In experiment [2] the test system is Escherichia coli. In words: Inhibition of Glutathionylspermidine amidase at 1 mM compound concentration.
The target in experiment [3] is Glutathionylspermidine synthetase/amidase (Escherichia coli) (UniProt P0AES0). Description: Percentage of inhibition of Glutathionylspermidine synthetase at 7.3 mM concentration.
For experiment [4] the target is unchanged. In words: Percentage of inhibition of Glutathionylspermidine synthetase at 1 mM concentration.
For experiment [5] the target is unchanged. In words: Inhibition of Glutathionylspermidine synthetase.
In experiment [6] the test system is Escherichia coli. Description: Inhibition of glutathionylspermidine amidase at 1 mM; not detectable.

Glutathionylspermidine synthetase/amidase (Escherichia coli), sequence (P0AES0 whole entry, looked up): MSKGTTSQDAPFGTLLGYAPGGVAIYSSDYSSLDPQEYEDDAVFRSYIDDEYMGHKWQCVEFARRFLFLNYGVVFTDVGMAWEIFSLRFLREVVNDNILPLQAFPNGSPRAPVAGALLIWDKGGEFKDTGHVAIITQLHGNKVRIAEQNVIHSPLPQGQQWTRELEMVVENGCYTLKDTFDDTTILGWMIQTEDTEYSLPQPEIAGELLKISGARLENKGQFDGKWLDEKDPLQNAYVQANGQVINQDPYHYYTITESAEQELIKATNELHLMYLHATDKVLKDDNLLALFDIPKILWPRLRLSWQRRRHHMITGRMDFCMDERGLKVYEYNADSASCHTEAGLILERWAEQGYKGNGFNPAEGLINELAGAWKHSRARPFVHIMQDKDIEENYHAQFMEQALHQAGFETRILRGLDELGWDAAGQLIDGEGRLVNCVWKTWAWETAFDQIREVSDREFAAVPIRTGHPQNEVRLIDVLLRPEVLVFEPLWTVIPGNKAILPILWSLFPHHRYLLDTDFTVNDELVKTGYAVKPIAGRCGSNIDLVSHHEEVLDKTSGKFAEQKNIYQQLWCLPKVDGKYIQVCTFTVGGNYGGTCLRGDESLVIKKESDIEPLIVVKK

`COP(=O)(CNC(=O)[C@H](C)NC(=O)CC[C@H](N)C(=O)O)NCCCNCCCCN` (some centres not stated): the affinity in experiment [1], expressed as Ki, was 24 µM. Also, in the experiment with Escherichia coli [2], the inhibition (in general, how much of the control response was suppressed) was 3.4%.

Consider `CCCCNP(=O)(CNC(=O)[C@H](C)NC(=O)CC[C@H](N)C(=O)O)OC` (some centres not stated), for which the inhibition was found to be 31.3% in experiment [3], 1.8% in the experiment with Escherichia coli [2] and 5.7% in experiment [4].

As for `C[C@H](NC(=O)CC[C@H](N)C(=O)O)C(=O)NCP(=O)(O)OCCCNCCCCN`, affinity in experiment [5] was put at a Ki of 6 µM. Moreover, the inhibition entry with Escherichia coli [6] is “not detectable”.
